Experimental data from publication PMC10141580, “Cyclic Dichalcogenides Extend the Reach of Bioreductive Prodrugs to Harness Thiol/Disulfide Oxidoreductases: Applications to seco-Duocarmycins Targeting the Thioredoxin System” (ACS Central Science, 2023).
Read-outs that look alike come from different tables or passages of the source.

Tests used:
[1] = system: A549 cells; assay: Resazurin cytotoxicity assay, A549, 72 h; settings: read-out: IC50(nM): A549
Method: (§1) We used A549 lung cancer and HeLa cervical cancer cell lines for initial screening of the prodrugs.
Fi gure S9: Cell ular resazurin-based cytotoxi ci ty as s a y.
Dose -response curves were calculated from at least 27 incremental single concentrations over a range
of at least three log units. Individual experiments with annotated experiment numbers are shown for each prodrug

[2] = system: NCI-60 standardized human tumor cell line panel; assay: cells; format: cell-based; settings: AZI sheet, read-out: GI50
[3] = system: HeLa-HRE cells; assay: Resazurin cytotoxicity assay, HeLa-HRE, 48 h; settings: for IC50(HeLa)/IC50(A549): ratio HeLa vs A549; for IC50: read-out: IC50(nM): HeLa, HeLa, 48 h
Method: as §1
HeLa-HRE cells were treated with prodrugs of the
Dose -response curves were calculated from at least 27 incremental single concentrations over a
range of at least three log units.

[4] = Cell-free HPLC reduction assay (GSH or TCEP challenge); settings: 5 mM GSH (50 equiv), 24 h
From the text: These performance features had not been tested with naphthols, so we used HPLC to test them and show their reduction-based activation sequence (Figure 2c and Figures S4–S6).
In brief, treatment with the quantitative reductant TCEP triggered a reaction cascade matching the activation sequence we expected (Figure 2c): dichalcogenides are reduced to dichalcogenols that cyclize, giving the naphthol cargos (plus thiol trigger byproduct) that evolve to the activated cyclopropanes (Figure 5).
The mobile phase consists of eluent A: water (analytical
grade, 0.1% formic acid) and eluent B: MeCN (analytical grade, 0.1% formic acid).
using a gradient of 10% B t o 90% B over 10 min.
Reduction assay using TCEP and GSH
tris(2-carboxyethyl)phospine) (TCEP, 5 mM in TE-bu f f e r ) , or reduced glut at hione (GSH, 50 mM in TE-buf f er) or
else blank TE-buffer. Final concentrations: Prodrug (0.1 mM) , TCEP ( 0. 5 mM) , G SH ( 5 mM). The blank sample
was measured after 10 min (“pure”) and 24 h (“O H-“) to control for basic hydrolysis. The GSH sample was
measured after 24 h to control for monothiol-based reductive release. The TCEP sample was measured at several […]
extracted for each of the intermediate species and final r elease products. Peak areas were calculated relative to
the sum of all peak areas at 320 nm to quantify individual species at each timepoints. […]

CN1CCN(C(=O)Oc2cc3c(c4ccccc24)C(CCl)CN3C(=O)c2cc3cc(OCCCN4CCC4)ccc3[nH]2)C2CSSCC21 (mixture of isomers) [Me-SS66C-CBI-AZI]
IC50 [1]: 12 nM | GI50 ([2]; 786-0): 8.8 nM | GI50 ([2]; A498): 26 nM | GI50 ([2]; A549/ATCC): 5 nM | GI50 ([2]; ACHN): 2 nM | GI50 ([2]; BT-549): 54 nM | GI50 ([2]; CAKI-1): 8.2 nM | GI50 ([2]; CCRF-CEM): 18 nM | GI50 ([2]; COLO 205): 22 nM | GI50 ([2]; DU-145): 5.3 nM | GI50 ([2]; EKVX): 27 nM | GI50 ([2]; HCC-2998): 22 nM | GI50 ([2]; HCT-15): 11 nM | GI50 ([2]; HCT-116): 46 nM | GI50 ([2]; HL-60(TB)): 29 nM | GI50 ([2]; HOP-62): 9.6 nM | GI50 ([2]; HOP-92): 53 nM | GI50 ([2]; HT29): 15 nM | GI50 ([2]; IGROV1): 6.6 nM | GI50 ([2]; K-562): 17 nM | GI50 ([2]; KM12): 90 nM | GI50 ([2]; LOX IMVI): 3.2 nM | GI50 ([2]; M14): 14 nM | GI50 ([2]; MALME-3M): 19 nM | GI50 ([2]; MCF7): 1.5 nM | GI50 ([2]; MDA-MB-231): 37.8 nM | GI50 ([2]; MDA-MB-435): 25 nM | GI50 ([2]; MDA-MB-468): 5.3 nM | GI50 ([2]; MOLT-4): 14 nM | GI50 ([2]; NCI-H23): 4.3 nM | GI50 ([2]; NCI-H226): 6.9 nM | GI50 ([2]; NCI-H460): 1.6 nM | GI50 ([2]; NCI-H522): 28 nM | GI50 ([2]; OVCAR-3): 51 nM | GI50 ([2]; OVCAR-4): 74 nM | GI50 ([2]; OVCAR-5): 23 nM | GI50 ([2]; OVCAR-8): 12 nM | GI50 ([2]; PC-3): 34 nM | GI50 ([2]; RPMI-8226): 35 nM | GI50 ([2]; RXF 393): 4.2 nM | GI50 ([2]; SF-268): 20 nM | GI50 ([2]; SF-295): 2.1 nM | GI50 ([2]; SF-539): 22 nM | GI50 ([2]; SK-MEL-2): 31 nM | GI50 ([2]; SK-MEL-5): 19 nM | GI50 ([2]; SK-MEL-28): 22 nM | GI50 ([2]; SK-OV-3): 30 nM | GI50 ([2]; SN12C): 12 nM | GI50 ([2]; SNB-19): 18 nM | GI50 ([2]; SR): 2.7 nM | GI50 ([2]; SW-620): 18 nM | GI50 ([2]; T-47D): 15 nM | GI50 ([2]; TK-10): 36 nM | GI50 ([2]; U251): 3.6 nM | GI50 ([2]; UACC-62): 4.2 nM | GI50 ([2]; UACC-257): 34 nM | GI50 ([2]; UO-31): 12 nM | IC50(HeLa)/IC50(A549) [3]: 33 | IC50 [3]: 400 nM | release/reduction on GSH challenge [4]: no disulfide reduction/prodrug release was indicated

CN1CCN(C(=O)Oc2cc3c(c4ccccc24)C(CCl)CN3C(=O)c2cc3cc(OCCCN4CCC4)ccc3[nH]2)C2CSSCC21 (mixture of isomers) [Me-SS66T-CBI-AZI]
IC50 [1]: 51 nM | GI50 ([2]; 786-0): 13 nM | GI50 ([2]; A498): 15 nM | GI50 ([2]; A549/ATCC): 1.8 nM | GI50 ([2]; ACHN): 2.4 nM | GI50 ([2]; BT-549): 21 nM | GI50 ([2]; CAKI-1): 2.8 nM | GI50 ([2]; CCRF-CEM): 7.4 nM | GI50 ([2]; COLO 205): 15 nM | GI50 ([2]; DU-145): 3.9 nM | GI50 ([2]; EKVX): 12 nM | GI50 ([2]; HCC-2998): 3.5 nM | GI50 ([2]; HCT-15): 3.8 nM | GI50 ([2]; HCT-116): 6.8 nM | GI50 ([2]; HL-60(TB)): 9.9 nM | GI50 ([2]; HOP-62): 5.2 nM | GI50 ([2]; HOP-92): 18 nM | GI50 ([2]; HT29): 8.3 nM | GI50 ([2]; IGROV1): 17 nM | GI50 ([2]; K-562): 4.4 nM | GI50 ([2]; KM12): 16 nM | GI50 ([2]; LOX IMVI): 2.2 nM | GI50 ([2]; M14): 5.6 nM | GI50 ([2]; MALME-3M): 6.4 nM | GI50 ([2]; MDA-MB-231): 19.2 nM | GI50 ([2]; MDA-MB-435): 13 nM | GI50 ([2]; MDA-MB-468): 2.6 nM | GI50 ([2]; MOLT-4): 4.5 nM | GI50 ([2]; NCI-H23): 1.7 nM | GI50 ([2]; NCI-H226): 3.4 nM | GI50 ([2]; NCI-H522): 11 nM | GI50 ([2]; OVCAR-3): 27 nM | GI50 ([2]; OVCAR-4): 28 nM | GI50 ([2]; OVCAR-5): 6.9 nM | GI50 ([2]; OVCAR-8): 3.3 nM | GI50 ([2]; PC-3): 19.7 nM | GI50 ([2]; RPMI-8226): 23 nM | GI50 ([2]; RXF 393): 5.7 nM | GI50 ([2]; SF-268): 9 nM | GI50 ([2]; SF-295): 2.2 nM | GI50 ([2]; SF-539): 5.2 nM | GI50 ([2]; SK-MEL-2): 19 nM | GI50 ([2]; SK-MEL-5): 2.3 nM | GI50 ([2]; SK-MEL-28): 4.8 nM | GI50 ([2]; SK-OV-3): 15 nM | GI50 ([2]; SN12C): 10 nM | GI50 ([2]; SNB-19): 5.8 nM | GI50 ([2]; SR): 1.7 nM | GI50 ([2]; SW-620): 2.3 nM | GI50 ([2]; T-47D): 15 nM | GI50 ([2]; TK-10): 22 nM | GI50 ([2]; U251): 1.6 nM | GI50 ([2]; UACC-62): 2.2 nM | GI50 ([2]; UACC-257): 15 nM | GI50 ([2]; UO-31): 3.8 nM | IC50(HeLa)/IC50(A549) [3]: 1.0 | IC50 [3]: 49 nM | release/reduction on GSH challenge [4]: partial reduction
